# From patent US20200277268A1, “PENTAFLUOROPHENYL SULFONAMIDE COMPOUNDS, COMPOSITIONS AND USES THEREOF” (DALRIADA THERAPEUTICS INC., priority 2017, published 2020)
# pIC50: −log10 of the molar value. “Also recorded” adds a separate entry of the source.
# What was measured:
# UBA5 [1] = target: T1, UBA5 (Homo sapiens, UniProt Q9GZZ9); assay: MS study of UBA5 covalent adduct; assay type: binding; conditions: 100 μM I-1, 50 μM UBA5
# T1 construct: Constructs of full length human UBA5 (1-404) were cloned into a pET28b(+) vector; His-SUMO (N, cleaved yes); made in house; host or cells: E. coli BL21 (DE3) RILP
# Procedure: To further characterize covalent modification of UBA5 by I-1, samples were incubated as 100 μM I-1 and 50 μM UBA5 (50 mM HEPES, pH 7.4) at 30° C. for 2 hours, followed by storage overnight at 4° C. prior to submission for LC-MS analysis.
# [2] = tested on: healthy keratinocyte cells (HaCaT); assay: CellTiter-Blue cell viability, HaCaT; assay type: cell-based; conditions: Homo sapiens, non-cancerous, 72 hours
# Procedure: (§1) The anti-cancer efficacy of exemplary compounds of the application were assessed in vitro against different cancer cell lines. Cell viability was examined following treatment at various concentrations of inhibitor (0.097656-50 μM) using a CellTiter-Blue® cell viability assay. 1×10^4 cells/well were plated in 96-well assay plates in culture medium. All cells were grown in DMEM, IMDM and RPMI-1640 supplemented with 10% fetal bovine serum (FBS). In some instances, FBS was removed for periods ranging from 16-24 hours, and re-introduced with test compound addition. After 24 hrs, test compounds and vehicle controls were added to appropriate wells such that the final volume was 100 μl in each well. The cells were cultured for the desired test exposure period (72 hours) at 37° C. and 5% CO2. The assay plates were removed from 3° C. incubator and 20 μl/well of CellTiter-Blue® Reagent was added. The plates were incubated using standard cell culture conditions for 1-4 hours. Afterwards, the plates were shaken for 10 seconds and florescence was recorded at 560/590 nm using a Cytation 3 spectrophotometer. IC50 values were determined using non-linear regression analysis with GraphPad Prism 6.0 (GraphPad Software Inc.).
# kinases = assay: KINOMEscan kinase screen (DiscoverX); assay type: binding; conditions: 10 μM
# Procedure: For most assays, kinase-tagged T7 phage strains were grown in parallel in 24-well blocks in an E. coli host derived from the BL21 strain. E. coli were grown to log-phase and infected with T7 phage from a frozen stock (multiplicity of infection=0.4) and incubated with shaking at 32° C. until lysis (90-150 minutes). The lysates were centrifuged (6,000×g) and filtered (0.2 μm) to remove cell debris. The remaining kinases were produced in HEK-293 cells and subsequently tagged with DNA for qPCR detection. […] The liganded beads were blocked with excess biotin and washed with blocking buffer (SeaBlock (Pierce), 1% BSA, 0.05% Tween 20, 1 mM DTT) to remove unbound ligand and to reduce non-specific phage binding. […] I-1 test compound was prepared as 40× stocks in 100% DMSO and directly diluted into the assay. All reactions were performed in polypropylene 384-well plates in a final volume of 0.02 mL. […] The kinase concentration in the eluates was measured by qPCR. […]
# I-1 test compound was tested at 10 μM, and results for primary screen binding interactions are reported as […] where lower numbers indicate stronger hits in the matrix. Ctrl is calculated with the following formula:
# test compound=I-1 negative control=DMSO (100% Ctrl) positive control=control compound (0% Ctrl)
# [3] = tested on: primary human fibroblast cells (PHF); assay: CellTiter-Blue cell viability, PHF; assay type: cell-based; conditions: non-cancerous, 72 hours
# Procedure: as §1
# ATCC3034 = assay: Cell viability, medulloblastoma ATCC3034; assay type: cell-based; conditions: medulloblastoma cell line
# Procedure: as §1, with “Inc.). […]” for “Inc.).”
# A-172 = assay: Cell viability, glioblastoma A-172; assay type: cell-based; conditions: Homo sapiens, glioblastoma cell line
# Procedure: as §1, with “Cell viability was examined following treatment at various concentrations of inhibitor (0.097656-50 μM) using a CellTiter-Blue® cell viability assay.” left out, “All cells were grown in DMEM, IMDM and RPMI-1640 supplemented with 10% fetal bovine serum (FBS).” left out
# LN-18 = assay: Cell viability, glioblastoma LN-18; assay type: cell-based; conditions: Homo sapiens, glioblastoma cell line
# Procedure: as §1, with “Cell viability was examined following treatment at various concentrations of inhibitor (0.097656-50 μM) using a CellTiter-Blue® cell viability assay.” left out, “All cells were grown in DMEM, IMDM and RPMI-1640 supplemented with 10% fetal bovine serum (FBS).” left out
# in vitro = conditions: male, mouse
# Procedure: The reaction mixture was constituted with 100 mM phosphate buffer, ultra-pure H2O, 5 mM MgCl2 solution, 10 mM NADPH solution and 1 mg/mL S9 fraction. This mixture was then pre-warmed at 37° C. for 5 minutes. […] Aliquots of 50 μL were taken from the reaction solution at 0, 15, 30, 45 and 60 minutes. The aliquoted reaction solutions were stopped by the addition of a mixture of cold methanol and IS (100 nM alprazolam, 200 nM imipramine, 200 nM labetalol and 2 μM ketoprofen). The samples were then centrifuged at 3220 g for 40 minutes. Afterwards, aliquots of 90 μL of the supernatant for each sample was mixed with 90 μL of ultra-pure water and subjected to liquid chromatography tandem mass spectrometry (LC-MS/MS) analysis.
# Injection volume was 10 μL.
# D425 = assay: Cell viability, medulloblastoma D425; assay type: cell-based; conditions: medulloblastoma cell line
# Procedure: as §1, with “Inc.). […]” for “Inc.).”
# AR230R = assay: Cell viability, CML AR230R; assay type: cell-based; conditions: Table 4
# Procedure: as §1, with “Inc.). […]” for “Inc.).”
# LN-229 = assay: Cell viability, glioblastoma LN-229; assay type: cell-based; conditions: Homo sapiens, glioblastoma cell line
# Procedure: as §1, with “Cell viability was examined following treatment at various concentrations of inhibitor (0.097656-50 μM) using a CellTiter-Blue® cell viability assay.” left out, “All cells were grown in DMEM, IMDM and RPMI-1640 supplemented with 10% fetal bovine serum (FBS).” left out
# UBA5 [4] = target: T1, UBA5; assay: 19F NMR study of covalent modification of UBA5; assay type: binding; conditions: 100 μM compound, 100 μM UBA5, 2 hours at 37° C.
# Procedure: Spectra were normalized and referenced according to the fluorine peak of 5-fluoro-Trp.
# To assess potential reactivity of I-1 against Cys containing proteins, a series of ^19F NMR studies were conducted with BSA, lysozyme, STAT3, and STATS. […] All samples were prepared in 100 mM HEPES pH 7.4, and 100 μM 5-fluoro-Trp, with a final concentration of 10% D20 and 10% DMSO. The samples were incubated for 2 hours at 37° C. prior to data collection. All spectra were normalized and referenced according to the fluorine peak of 5-fluoro-Trp.
# To evaluate covalent modification of UBA5 by I-1, ^19F NMR studies were conducted in accordance with the procedure described in Example 80.
# T1 sequence (Q9GZZ9 whole entry): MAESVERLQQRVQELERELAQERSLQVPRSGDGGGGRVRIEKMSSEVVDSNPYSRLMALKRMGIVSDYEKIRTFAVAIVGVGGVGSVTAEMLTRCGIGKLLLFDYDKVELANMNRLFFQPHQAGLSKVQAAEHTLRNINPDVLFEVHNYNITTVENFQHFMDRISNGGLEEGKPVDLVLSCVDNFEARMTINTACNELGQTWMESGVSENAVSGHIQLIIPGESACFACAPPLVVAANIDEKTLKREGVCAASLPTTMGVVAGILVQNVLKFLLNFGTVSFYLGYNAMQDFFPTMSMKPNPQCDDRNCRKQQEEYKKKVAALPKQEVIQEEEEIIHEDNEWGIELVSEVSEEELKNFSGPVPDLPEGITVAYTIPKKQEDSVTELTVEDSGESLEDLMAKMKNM
smiles,measurement,setting,value
"O=S(=O)(c1c(F)c(F)c(F)c(F)c1F)N(Cc1ccc(F)cc1)C1CC1 [Compound I-1, N-cyclopropyl-2,3,4,5,6-pentafluoro-N-(4-fluorobenzyl)benzenesulfonamide]",UBA5 covalent adduct formation by MS,UBA5 [1],covalent adduct formation
same,pIC50,[2],4.90
same,competitive binding / inhibition of kinase targets,kinases,negligible competitive binding; also recorded: does not inhibit
same,pIC50,[3],5.47
same,pIC50,ATCC3034,6.10
same,pIC50,A-172,5.15
same,pIC50,LN-18,5.31
same,half-life at 2 μM,in vitro; s9,232 h
same,microsomal CLint at 2 μM,in vitro; s9,0.05 µL/min/mg
same,Remaining Percentage 0 min,"in vitro; s9, 0 h, 2 μM",100.00%
same,pIC50,D425,6.10
same,pIC50,AR230R,5.82
same,pIC50,LN-229,5.52
same,covalent modification of UBA5 (free fluoride detection),UBA5 [4],Fluoride was released; also recorded: covalently modifies UBA5
